Reference: article PMC10320002, “In vitro antiproliferative, anti-inflammatory effects and molecular docking studies of natural compounds isolated from Sarcocephalus pobeguinii (Hua ex Pobég)” (Frontiers in Pharmacology, 2023)
Where “and” joins values, the source holds several entries; their conditions need not be identical. Equal entries are not always repeated. Where two headings read alike, the source gives them in different places.

Key:
[1] = target: T1, 15-LOX (Glycine max, UniProt P08170); assay: Soybean 15-LOX inhibitory assay (FOX); format: biochemical; details: linoleic acid 140 μM, pH 7.4, 25°C
T1 construct: purchased Merck, Darmstadt, Germany
T1 sequence (P08170 1-839): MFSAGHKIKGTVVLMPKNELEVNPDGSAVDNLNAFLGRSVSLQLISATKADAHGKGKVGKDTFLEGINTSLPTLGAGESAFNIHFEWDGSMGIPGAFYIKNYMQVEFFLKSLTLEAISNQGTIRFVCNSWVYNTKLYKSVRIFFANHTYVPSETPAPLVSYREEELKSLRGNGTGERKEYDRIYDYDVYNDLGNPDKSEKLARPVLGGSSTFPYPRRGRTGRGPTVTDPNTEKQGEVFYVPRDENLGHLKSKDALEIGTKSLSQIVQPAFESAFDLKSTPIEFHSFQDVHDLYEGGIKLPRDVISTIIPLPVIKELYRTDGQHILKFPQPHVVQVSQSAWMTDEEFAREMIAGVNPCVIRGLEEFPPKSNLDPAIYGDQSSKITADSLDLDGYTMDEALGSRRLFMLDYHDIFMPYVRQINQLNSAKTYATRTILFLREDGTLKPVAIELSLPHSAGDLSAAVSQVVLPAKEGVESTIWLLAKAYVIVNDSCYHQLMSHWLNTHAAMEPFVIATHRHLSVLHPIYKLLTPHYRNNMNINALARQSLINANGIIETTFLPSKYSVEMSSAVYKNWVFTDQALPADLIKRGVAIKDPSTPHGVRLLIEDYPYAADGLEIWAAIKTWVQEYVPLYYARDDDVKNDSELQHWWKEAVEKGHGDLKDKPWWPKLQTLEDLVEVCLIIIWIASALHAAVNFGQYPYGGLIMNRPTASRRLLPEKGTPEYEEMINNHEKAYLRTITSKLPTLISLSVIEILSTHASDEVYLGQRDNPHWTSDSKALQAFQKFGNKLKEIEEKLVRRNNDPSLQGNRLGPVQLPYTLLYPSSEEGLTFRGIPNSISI
Protocol: This assay is based on the formation of the Fe^3+/xylenol orange (FOX) complex with maximal absorption at 560 nm ([Pinto et al., 2007]). Forty microliters of 15-LOX (final concentration: 200 UI/mL) from Glycine max (Merck, Darmstadt, Germany) was incubated with 20 µL of tested samples (100, 50, 25, 10, and 5 μg/mL) at 25°C for 5 min, with DMSO at 10% (v/v) being used as negative control. Thereafter, 40 µL of linoleic acid (final concentration, 140 μM) prepared in Tris-HCl buffer (50 mM, pH 7.4) was added, and the plates were further incubated at 25°C for 20 min in the dark. The assay was terminated by adding 100 μL of FOX reagent [sulfuric acid (30 mM), xylenol orange (100 μM), ferrous II) sulfate (100 μM), dissolved in methanol/water (9:1)], followed by the incubation of the plates at 25°C for 30 min in the dark. Finally, the absorbance was measured at 560 nm on a microplate reader (Epoch, BioTek, Winooski, United States of America). The blanks were made in the same way as tested samples except that the substrate was added after the FOX reagent. The 15-LOX inhibitory activity was calculated by using the following formula: 15−LOX inhibitory activity %=100−Abs sample−Abs blank/Abs negative control−Abs blank×100 (1)

[2] = tested on: human normal skin fibroblasts (WS1) cell lines; set-up: method as in Gauthier et al., 2009; details: ref Gauthier et al., 2009; cited from earlier work
[3] = tested on: cancer cells (MCF-7, HepG2, Caco-2 and A549) and non-cancerous Vero cells; assay: Time-dependent cytotoxic effect on cell growth (MTT); format: cell-based; details: 10 μg/mL; 12, 24 and 48 h
Protocol: The cancerous and non-cancerous cells were seeded at a density of 10^4 cells per well in 96-well microtiter plates, and they were incubated overnight at 37°C with 5% CO2 in a 5% CO2 humidified environment in order to allow the attachment of cells at the bottom of the plates. Then, the cells were exposed to increasing concentrations of compounds (100, 50, 25, 10 and 5 μg/mL) dissolved in dimethyl sulfoxide (DMSO) and further diluted in fresh culture medium. In this assay, the final concentration of DMSO in the culture medium was 0.5% used as negative control while doxorubicin hydrochloride (Pfizer, United States of America) was used as a positive control. […] After 4 h of incubation, the medium was gently removed, and the formazan crystals were solubilized in 50 µL of DMSO. The absorbance was measured at 570 nm after shaking for 1 min on a microplate reader (Synergy Multi-Mode Reader, BioTek, Winooski, United States of America).

[4] = tested on: human lung cancer cells A549; set-up: method as in Gauthier et al., 2009; Gao et al., 2016; details: ref Gauthier et al., 2009; Gao et al., 2016; cited from earlier work
[5] = tested on: caspase-3/-7 activity in MCF-7 cells; assay: Caspase-3/-7 luminescence assay (Caspase-Glo 3/7) in MCF-7 cells; format: cell-based, human; details: 2×IC50, 18 h, vs cells treated with DMSO 0.5%
Protocol: The effect of the most bioactive compounds (2), (6) and (9) were used for the analysis of caspase-3 and caspase-7 activities on MCF-7 cells by using the Caspase-Glo® 3/7 kit (Promega, Germany). In fact, MCF-7 cells were seeded at a density of 10^4 cells per well on 96-well microtiter plates, and the plates were incubated overnight at 37 °C in a 5% CO2 humidified environment. […] Thereafter, 100 µL of Caspase-Glo® 3/7 reagent was added to each well, mixed and incubated in the dark for 1 h at room temperature. The luminescence was then measured on a microplate reader (Synergy Multi-Mode Reader, BioTek, Winooski, United States of America). The caspase-3/-7 activity was expressed as fold change of cells treated with 0.5% DMSO (control).

[6] = read-out: IC50 values 15-LOX (converted)

Row | Compound | IC50 [1, 6] | IC50 [2] | time-dependent cytotoxic effect on cell growth [3] | IC50 ([1]; IC50 values 15-LOX) | IC50 [4] | fold change in the activation of caspase-3/-7 activity [5]
1 | C[C@]12COCC=C1C[C@H]1c3[nH]c4ccccc4c3CCN1C2=O [Compound 10, latifoliamide C] | 253 µM |  |  |  |  | 
2 | CC1(C)CC[C@]2(C(=O)O)CC[C@]3(C)C(=CC[C@@H]4[C@@]5(C)CC[C@H](O)[C@@](C)(CO)[C@@H]5CC[C@]43C)[C@@H]2C1 [Compound 2, hederagenin] |  | 77 µM | time-dependent manner | 28.4 µM and 28.2 µM | 26.3 µM and 39 µM | up to 2 fold
3 | C[C@@H]1CC[C@]2(C(=O)O)CC[C@]3(C(=O)O)C(=CCC4[C@@]5(C)CC[C@H](O[C@H]6O[C@H](C)[C@@H](O)[C@H](O)[C@H]6O)C(C)(C)C5CC[C@]43C)C2[C@H]1C (stereo partly drawn) [Compound 6, quinovic acid 3-O-[α-D-quinovopyranoside]] | > 158 µM |  |  |  |  | up to 2 fold
4 | C[C@@H]1CC[C@]2(C(=O)O)CC[C@]3(C(=O)O)C(=CCC4[C@@]5(C)CC[C@H](O[C@@H]6O[C@H](C)[C@@H](O)[C@H](O)[C@H]6O)C(C)(C)C5CC[C@]43C)C2[C@H]1C (stereo partly drawn) [Compound 9, quinovic acid 3-O-[β-D-quinovopyranoside]] | 118 µM |  |  |  |  | 
